Each compound was assayed on BRAF V600E CRC xenograft model HT29 (assay: In vivo antitumor efficacy, HT29 BRAF V600E CRC xenograft model (Example 4, 14 day)). Conditions: HT29 in female nude mice; compound A 75 mg/kg, dabrafenib 30 mg/kg, trametinib 0.3 mg/kg QD PO, cetuximab 20 mg/kg 2QW IP.
Description: HT29 xenografts was established by direct subcutaneous (sc) implantation of 2×10^6 cells into the right axillary region of 6-7 week old female nude mice.
Animals were weighed at dosing day(s) and dose was body weight adjusted, dosing volume was 10 ml/kg. Tumor dimensions and body weights were collected at the time of randomization and twice weekly thereafter for the study duration.
Percent treatment/control (T/C) values were calculated using the following formulae:
% Regression=100×ΔT/T0 if ΔT<0;
where: T=mean tumor volume of the drug-treated group on the final day of the study; ΔT=mean tumor volume of the drug-treated group on the final day of the study—mean tumor volume of the drug-treated group on initial day of dosing; T0=mean tumor volume of the drug-treated group on the day of cohort; C=mean tumor volume of the control group on the final day of the study; and ΔC=mean tumor volume of the control group on the final day of the study—mean tumor volume of the control group on initial day of dosing.
All data were expressed as mean±standard error of the mean (SEM). Delta tumor volume and percent body weight changes were used for statistical analysis. Between group comparisons were carried out using the One way ANOVA followed by a post hoc Tukey test. For all statistical evaluations, the level of significance was set at p<0.05. Significance compared to the untreated control group is reported unless otherwise stated.
With `CNC[C@@H](NC(=O)c1ccc(-c2nc([C@H]3CC[C@H](O)[C@@H](F)C3)cnc2N)cc1F)c1cc(F)cc(Br)c1` [compound A, 4-(3-amino-6-((1S,3S,4S)-3-fluoro-4-hydroxycyclohexyl)pyrazin-2-yl)-N—((S)-1-(3-bromo-5-fluorophenyl)-2-(methylamino)ethyl)-2-fluorobenzamide] the “T/C % or Reg % at day 39 post implantation” value (from here on “T/C % or Reg %”) was 53.8%.
With `CC(C)(C)c1nc(-c2cccc(NS(=O)(=O)c3c(F)cccc3F)c2F)c(-c2ccnc(N)n2)s1` [dabrafenib, N-(3-(5-(2-aminopyrimidin-4-yl)-2-(tert-butyl)thiazol-4-yl)-2-fluorophenyl)-2,6-difluorobenzenesulfonamide] the “T/C % or Reg %” value was 58.8%.
`CC(=O)Nc1cccc(-n2c(=O)n(C3CC3)c(=O)c3c(Nc4ccc(I)cc4F)n(C)c(=O)c(C)c32)c1` [trametinib, N-(3-(3-cyclopropyl-5-((2-fluoro-4-iodophenyl)amino)-6,8-dimethyl-2,4,7-trioxo-3,4,6,7-tetrahydropyrido[4,3-d]pyrimidin-1(2H)-yl)phenyl)acetamide] was tested, and the “T/C % or Reg %” value was 47.7%.

Reference: patent US20210121460A1, “A TRIPLE PHARMACEUTICAL COMBINATION COMPRISING DABRAFENIB, TRAMETINIB AND AN ERK INHIBITOR” (NOVARTIS AG, priority 2018, published 2021)
